Measured values from patent US7053118B1, “Lactone compounds and methods of use” (Harbor Branch Oceanographic Institution, Inc., priority 2003, dated 2006).

What was measured:
Format in all cases: cell-based
[1] = tested on: P388 murine leukemia cell line; test: Antiproliferative MTT assay, P388 cell line; conditions: P-388 cells, 48-h exposure
Method: (§1) Extracts and compounds were analyzed as to their effects on proliferation of A549 human adenocarcinoma, PANC-1 human pancreatic and P388 murine leukemia cell lines. P388 cells were obtained from Dr. R. Camalier, National Cancer Institute, Bethesda, Md., and A549 and PANC-1 cells were obtained from American Type Culture Collection, Rockville, Md. All cell lines were maintained in Roswell Park Memorial Institute (RPMI) medium 1640 supplemented with 10% fetal bovine serum. All cell lines are cultured in plastic tissue culture flasks and kept in an incubator at 37° C. in humidified air containing 5% CO2. Prior to testing, antibiotic-free stock cultures of each of the cell lines were subcultured to 10^6 cells/ml by dilution in fresh growth medium at 2 to 3 day intervals.
(§2) To assess the antiproliferative effects of extracts and compounds against the P388 cell line, 200 μl cultures (96-well tissue culture plates, Nunc, Denmark) are established at 1×10^5 cells/ml in drug-free medium or medium containing the test agent at 10.0, 1.0, 0.10 and 0.010 μg/ml. Solvent for all dilutions ethanol. All experimental cultures are initiated in medium containing Gentamycin sulfate (50 μg/ml; Schering Corporation, Kenilworth, N.J.). […]

[2] = tested on: A549 human adenocarcinoma cell line; test: Antiproliferative MTT assay, A549 cell line; conditions: A549 cells, additional 48 hr exposure prior to MTT addition
Method: as §1
as §2, with “ethanol.” for “ethanol. All experimental cultures are initiated in medium containing Gentamycin sulfate (50 μg/ml; Schering Corporation, Kenilworth, N.J.).”
(§3) Similar procedures are utilized for A549 and PANC-1 cells which require an additional 48 hr exposure prior to MTT addition. Results are expressed as percent inhibition compared to the negative (no drug) control. […]

[3] = tested on: PANC-1 human pancreatic cell line; test: Antiproliferative MTT assay, PANC-1 cell line; conditions: PANC-1 cells, additional 48 hr exposure prior to MTT addition
Method: as §1
as §2, with “ethanol.” for “ethanol. All experimental cultures are initiated in medium containing Gentamycin sulfate (50 μg/ml; Schering Corporation, Kenilworth, N.J.).”
as §3

## C=C1C[C@@](C)(/C=C/C=C/CCCCCCCC)OC1=O [plakolide A]
[1]
  Activity (IC50 μg/ml): 1.09 µg/mL
[2]
  Activity (IC50 μg/ml): 5.0 µg/mL
[3]
  Activity (IC50 μg/ml): 3.78 µg/mL
